Test results as given in PubChem BioAssay (NCI).
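Growth conditions: 96-well plates. Treatment: test compound, 48 hours, 5 concentrations. Analysis: linear interpolation between bracketing concentrations; unreached endpoints set to highest concentration. GI50 = concentration required for 50% inhibition of growth. TGI: total growth inhibition.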

Legend:
Test in all cases: NCI tumour cell line growth inhibition, 48 h
SNB-75 CNS = test system: SNB-75 CNS
HCC-2998 colon = test system: HCC-2998 colon
UACC-257 melanoma = test system: UACC-257 melanoma
NCI-H23 lung = test system: NCI-H23 lung
UO-31 renal = test system: UO-31 renal
786-0 renal = test system: 786-0 renal
SW-620 colon = test system: SW-620 colon
MALME-3M melanoma = test system: MALME-3M melanoma
NCI-H522 lung = test system: NCI-H522 lung
HCT-15 colon = test system: HCT-15 colon
SK-OV-3 ovarian = test system: SK-OV-3 ovarian
LOX IMVI melanoma = test system: LOX IMVI melanoma
NCI-H460 lung = test system: NCI-H460 lung
MCF7 breast = test system: MCF7 breast
M14 melanoma = test system: M14 melanoma
PC-3 prostate = test system: PC-3 prostate
EKVX NSCLC = test system: EKVX NSCLC
SK-MEL-5 melanoma = test system: SK-MEL-5 melanoma
SN12C renal = test system: SN12C renal
RPMI-8226 leukemia = test system: RPMI-8226 leukemia
ACHN renal = test system: ACHN renal
K-562 leukemia = test system: K-562 leukemia
U251 CNS = test system: U251 CNS
HOP-92 NSCLC = test system: HOP-92 NSCLC
A549 NSCLC = test system: A549 NSCLC
CAKI-1 renal = test system: CAKI-1 renal
SK-MEL-2 melanoma = test system: SK-MEL-2 melanoma
UACC-62 melanoma = test system: UACC-62 melanoma
DU-145 prostate = test system: DU-145 prostate
RXF 393 renal = test system: RXF 393 renal
MDA-MB-231 breast = test system: MDA-MB-231 breast
SK-MEL-28 melanoma = test system: SK-MEL-28 melanoma
TK-10 renal = test system: TK-10 renal
KM12 colon = test system: KM12 colon
OVCAR-5 ovarian = test system: OVCAR-5 ovarian
HL-60(TB) leukemia = test system: HL-60(TB) leukemia
HOP-62 NSCLC = test system: HOP-62 NSCLC
OVCAR-4 ovarian = test system: OVCAR-4 ovarian
MOLT-4 leukemia = test system: MOLT-4 leukemia
NCI/ADR-RES ovarian = test system: NCI/ADR-RES ovarian
T-47D breast = test system: T-47D breast
OVCAR-3 ovarian = test system: OVCAR-3 ovarian
HCT-116 colon = test system: HCT-116 colon
NCI-H226 lung = test system: NCI-H226 lung
BT-549 breast = test system: BT-549 breast
CCRF-CEM leukemia = test system: CCRF-CEM leukemia
SR leukemia = test system: SR leukemia
SF-295 CNS = test system: SF-295 CNS
HS 578T breast = test system: HS 578T breast
OVCAR-8 ovarian = test system: OVCAR-8 ovarian
A498 renal = test system: A498 renal
IGROV1 ovarian = test system: IGROV1 ovarian
MDA-MB-435 = test system: MDA-MB-435
SF-268 CNS = test system: SF-268 CNS
SNB-19 CNS = test system: SNB-19 CNS
COLO 205 colon = test system: COLO 205 colon

CCOC(=O)C#Cc1c(C(=O)OCC)nnn1Cc1ccc(C(F)(F)F)cc1
GI50 (SNB-75 CNS): 9.31 µM | TGI (SNB-75 CNS): 21.4 µM | GI50 (HCC-2998 colon): 18.1 µM | TGI (HCC-2998 colon): 32.7 µM | GI50 (UACC-257 melanoma): 3.69 µM | TGI (UACC-257 melanoma): 11 µM | GI50 (NCI-H23 lung): 11.5 µM | TGI (NCI-H23 lung): 27.6 µM | GI50 (UO-31 renal): 1.8 µM | TGI (UO-31 renal): 3.47 µM | GI50 (786-0 renal): 2.58 µM | TGI (786-0 renal): 6.29 µM | GI50 (SW-620 colon): 2.08 µM | TGI (SW-620 colon): 4.36 µM | GI50 (MALME-3M melanoma): 2.08 µM | TGI (MALME-3M melanoma): 4.9 µM | GI50 (NCI-H522 lung): 2.4 µM | TGI (NCI-H522 lung): 4.47 µM | GI50 (HCT-15 colon): 1.95 µM | TGI (HCT-15 colon): 4.46 µM | GI50 (SK-OV-3 ovarian): 19.4 µM | TGI (SK-OV-3 ovarian): 38.6 µM | GI50 (LOX IMVI melanoma): 0.692 µM | TGI (LOX IMVI melanoma): 2.09 µM | GI50 (NCI-H460 lung): 11.5 µM | TGI (NCI-H460 lung): 27.1 µM | GI50 (MCF7 breast): 2.52 µM | TGI (MCF7 breast): 10.1 µM | GI50 (M14 melanoma): 2.46 µM | TGI (M14 melanoma): 5.82 µM | GI50 (PC-3 prostate): 9.38 µM | TGI (PC-3 prostate): 22 µM | GI50 (EKVX NSCLC): 16.6 µM | TGI (EKVX NSCLC): 31.2 µM | GI50 (SK-MEL-5 melanoma): 9.92 µM | TGI (SK-MEL-5 melanoma): 21.5 µM | GI50 (SN12C renal): 2.42 µM | TGI (SN12C renal): 6.08 µM | GI50 (RPMI-8226 leukemia): 2.53 µM | TGI (RPMI-8226 leukemia): 7.21 µM | GI50 (ACHN renal): 1.92 µM | TGI (ACHN renal): 3.56 µM | GI50 (K-562 leukemia): 1.77 µM | TGI (K-562 leukemia): 8.3 µM | GI50 (U251 CNS): 10.9 µM | TGI (U251 CNS): 22.8 µM | GI50 (HOP-92 NSCLC): 2.53 µM | TGI (HOP-92 NSCLC): 5.7 µM | GI50 (A549 NSCLC): 20.6 µM | TGI (A549 NSCLC): 39.2 µM | GI50 (CAKI-1 renal): 2.09 µM | TGI (CAKI-1 renal): 4.58 µM | GI50 (SK-MEL-2 melanoma): 15.1 µM | TGI (SK-MEL-2 melanoma): 28.7 µM | GI50 (UACC-62 melanoma): 1.93 µM | TGI (UACC-62 melanoma): 4.36 µM | GI50 (DU-145 prostate): 3.9 µM | TGI (DU-145 prostate): 15.1 µM | GI50 (RXF 393 renal): 1.68 µM | TGI (RXF 393 renal): 3.24 µM | GI50 (MDA-MB-231 breast): 4.05 µM | TGI (MDA-MB-231 breast): 14 µM | GI50 (SK-MEL-28 melanoma): 2.47 µM | TGI (SK-MEL-28 melanoma): 5.91 µM | GI50 (TK-10 renal): 2.08 µM | TGI (TK-10 renal): 4.55 µM | GI50 (KM12 colon): 11.8 µM | TGI (KM12 colon): 25.5 µM | GI50 (OVCAR-5 ovarian): 9.75 µM | TGI (OVCAR-5 ovarian): 22 µM | GI50 (HL-60(TB) leukemia): 1.3 µM | TGI (HL-60(TB) leukemia): 3.85 µM | GI50 (HOP-62 NSCLC): 17 µM | TGI (HOP-62 NSCLC): 32 µM | GI50 (OVCAR-4 ovarian): 3.22 µM | TGI (OVCAR-4 ovarian): 11.7 µM | GI50 (MOLT-4 leukemia): 1.73 µM | TGI (MOLT-4 leukemia): 6.85 µM | GI50 (NCI/ADR-RES ovarian): 7.49 µM | TGI (NCI/ADR-RES ovarian): 40.7 µM | GI50 (T-47D breast): 2.08 µM | TGI (T-47D breast): 5.66 µM | GI50 (OVCAR-3 ovarian): 1.73 µM | TGI (OVCAR-3 ovarian): 3.32 µM | GI50 (HCT-116 colon): 1.8 µM | TGI (HCT-116 colon): 3.5 µM | GI50 (NCI-H226 lung): 1.72 µM | TGI (NCI-H226 lung): 3.63 µM | GI50 (BT-549 breast): 2.93 µM | TGI (BT-549 breast): 8.65 µM | GI50 (CCRF-CEM leukemia): 1.07 µM | TGI (CCRF-CEM leukemia): 4.92 µM | GI50 (SR leukemia): 1.06 µM | TGI (SR leukemia): 4.48 µM | GI50 (SF-295 CNS): 17.5 µM | TGI (SF-295 CNS): 32.9 µM | GI50 (HS 578T breast): 22.5 µM | TGI (HS 578T breast): 59.5 µM | GI50 (OVCAR-8 ovarian): 4.37 µM | TGI (OVCAR-8 ovarian): 15 µM | GI50 (A498 renal): 16.9 µM | TGI (A498 renal): 30.6 µM | GI50 (IGROV1 ovarian): 14.2 µM | TGI (IGROV1 ovarian): 30.8 µM | GI50 (MDA-MB-435): 3.72 µM | TGI (MDA-MB-435): 14.5 µM | GI50 (SF-268 CNS): 8.12 µM | TGI (SF-268 CNS): 25.7 µM | GI50 (SNB-19 CNS): 19.4 µM | TGI (SNB-19 CNS): 44.8 µM | GI50 (COLO 205 colon): 2.32 µM | TGI (COLO 205 colon): 5.29 µM
